In US5134150A, “Inhibition of the 5-lipoxygenase pathway” (priority 1989, dated 1992):

Experiments:
[1] = tested on: LTC4 production by human monocytes; assay: LTC4 production by human monocytes; format: cell-based; details: Monocyte; A23187-stimulated human monocytes
Description: The compounds of Formula (I) were evaluated for their ability to inhibit the production of LTC4 by human monocytes according to the following assay. Human monocytes were prepared from whole blood supplied by the American Red Cross. The blood was fractinated by a two-step procedure employing sedimentation on Ficoll followed by sedimentation on Percoll. […] Non-adherent cells were removed by washing. […] When drugs were evaluated, they were added to the cells 30 minutes prior to the A23187. Supernatants were collected, […] by centrifugation and stored frozed at -20° C. until assay. The LTC4 content was determined by using a New England Nuclear Leukotriene C-4 (^3 H) RIA Kit as per instructions.

[2] = tested on: Experimental Allergic Encephalomyelitis Induced in Female Lewis Rats; assay: Experimental allergic encephalomyelitis, hindleg paralysis; format: in vivo, rat (female Lewis); details: for Inhibition of EAE, result in words: rat, in vivo
Description: EAE is induced in Female (Charles River) Lewis rats by a single intradermal injection of 0.1 ml of an encephalitogenic emulsion consisting of equial parts of a 50% w/v homogenate of guinea pig spinal cord and mid-brain in 0.5% aqueous phenol and Freund's complete adjuvant (4 mg/ml killed, dried M. butyricum) into a hindpaw (left) footpad. […] Any animal which becomes paralyzed during the course of the experiment is considered to have developed EAE whether or not the paralysis is permanent. Test compounds are administered daily beginning on the day of injection, for 19 days, exclusive of days 5, 6 12 and 13. Drug activity is determined by comparing the indicidence of EAE (paralysis) of the treated group with a control (vehicle) group. The level of significant difference between the treated groups and control groups is determined by a Chi-square test using a 2×2 contingency table. Body weight changes from day 0 are also statistically compared to the control group using a Student "t" test.

[3] = tested on: LTB4 synthesis by peritoneal exudate cells; assay: Ex vivo production of LTB4 from peritoneal exudate cells of drug-treated mice; format: in vivo, mouse; details: for inhibition at 100 mg/kg: Mus musculus, po, 100 mg/kg p.o.
Excerpt: In the following Examples where mice were used, they were male Balb/c mice (20-28 g), and where rats were used, they were male Lewis rats (180-210 g). All mice and rats were obtained from Charles River Breeding Laboratories, Kingston, N.Y. Within a single experiment, mice and rats were sex and age matched. Auranofin, phenidone, indomethacin, naproxen, and ibuprofen were each used as the free base. The compounds of Formula (I) were used either as the free base or in the appropriate salt form. Levamisole was used as the hydrochloride salt. […] Nordihydroguaiaretic acid (NDGA) was solubilized in dimethylacetamide and diluted with olive oil for subcutaneous administration. Carrageenan-induced peritoneal exudate cells from normal or drug-treated mice were washed and suspended in 2.2 ml of phosphate buffered saline. […] The cell preparation was centrifuged at 1500 rpm for 10 min and the supernatant was extracted using a C-18 silica column. […] A tetrahydrofuran, methanol, water, acetic acid (25:30:45: 0.1) solvent system, adjusted to pH 5.5 with ammonium hydroxide, was used at a flow rate of 0.7 ml/min. Cell derived LTB4 was quantified utilizing standard curves constructed with known amounts of synthetic LTB4.

5-Lipoxygenase = target: T1, 5-Lipoxygenase (Rattus norvegicus, UniProt P12527); assay: 5-Lipoxygenase activity (5-HETE) in RBL-1 cell extracts, 10,000 x g supernatant; format: biochemical; details: Table 8
T1 construct: The activities of these enzymes in extracts of RBL-1 cells were assayed; host or cells: RBL-1
T1 sequence (P12527 1-673): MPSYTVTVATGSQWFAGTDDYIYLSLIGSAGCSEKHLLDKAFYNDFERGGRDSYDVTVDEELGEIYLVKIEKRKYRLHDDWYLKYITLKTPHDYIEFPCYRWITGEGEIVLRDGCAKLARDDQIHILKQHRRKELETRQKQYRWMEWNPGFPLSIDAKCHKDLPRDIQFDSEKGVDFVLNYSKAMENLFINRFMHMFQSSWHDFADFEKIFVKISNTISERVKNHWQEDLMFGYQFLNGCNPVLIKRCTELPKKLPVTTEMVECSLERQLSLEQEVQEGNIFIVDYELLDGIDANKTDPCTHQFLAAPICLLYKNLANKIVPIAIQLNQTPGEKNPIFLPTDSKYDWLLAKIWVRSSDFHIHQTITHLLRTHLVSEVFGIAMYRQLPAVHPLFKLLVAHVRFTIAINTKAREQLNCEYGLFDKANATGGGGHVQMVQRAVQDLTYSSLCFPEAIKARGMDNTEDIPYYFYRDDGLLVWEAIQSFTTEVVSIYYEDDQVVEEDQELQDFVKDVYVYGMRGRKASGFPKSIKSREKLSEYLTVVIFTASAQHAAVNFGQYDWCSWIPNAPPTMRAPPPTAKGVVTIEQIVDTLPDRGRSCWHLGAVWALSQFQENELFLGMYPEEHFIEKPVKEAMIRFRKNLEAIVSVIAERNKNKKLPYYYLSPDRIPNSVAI

| IC50 [1] [µM] | SMILES | Hindleg paralysis - cumulative incidence, day 14 to 18 ([2]; 60 mg/kg/day, p.o.) | Inhibition of EAE, result in words [2] | inhibition at 100 mg/kg ([3]; Experiment 1) [%] | inhibition at 100 mg/kg ([3]; Experiment 2) [%] | inhibition at 100 mg/kg ([3]; Experiment 3) [%] | LTB4 production ex vivo, result in words ([3]; mouse, in vivo) | IC50 5-Lipoxygenase (5-Lipoxygenase) |
| --- | --- | --- | --- | --- | --- | --- | --- | --- |
| 1.8 | Fc1ccc(-c2nc3n(c2-c2ccncc2)CCS3)cc1 [Compound 1] | 0/11 | efficacious | 90 | 23 | 100 | Impairment of LTB4 production |  |
|  | COc1ccc2c(c1)c(CC(=O)O)c(C)n2C(=O)c1ccc(Cl)cc1 [Indomethacin] |  | not indomethacin |  |  |  |  | Inactive @ 30 |
